This is an account of results in publication PMC8143347, “Metabolism and Interspecies Variation of IMMH-010, a Programmed Cell Death Ligand 1 Inhibitor Prodrug” (Pharmaceutics, 2021).

The structures appear in SMILES notation. Entries after “also recorded” stand apart in the source; their conditions may differ.

One test addresses T1, CES1 (Homo sapiens, UniProt P23141).
T1 sequence (P23141 18-567): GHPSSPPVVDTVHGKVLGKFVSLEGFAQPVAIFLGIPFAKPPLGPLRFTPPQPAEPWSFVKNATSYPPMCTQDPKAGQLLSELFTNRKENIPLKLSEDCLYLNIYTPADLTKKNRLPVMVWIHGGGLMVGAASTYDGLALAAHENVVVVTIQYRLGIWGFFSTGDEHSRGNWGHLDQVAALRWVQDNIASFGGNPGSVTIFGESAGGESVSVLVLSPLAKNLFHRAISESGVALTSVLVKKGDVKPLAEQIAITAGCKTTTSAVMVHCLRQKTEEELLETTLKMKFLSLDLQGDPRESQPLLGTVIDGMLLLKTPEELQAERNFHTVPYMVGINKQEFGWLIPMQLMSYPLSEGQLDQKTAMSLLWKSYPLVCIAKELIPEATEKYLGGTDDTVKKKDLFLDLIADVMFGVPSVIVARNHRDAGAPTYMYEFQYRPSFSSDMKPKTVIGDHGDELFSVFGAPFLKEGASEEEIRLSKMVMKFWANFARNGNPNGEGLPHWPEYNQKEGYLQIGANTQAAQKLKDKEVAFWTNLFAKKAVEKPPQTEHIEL
In words: Chemical inhibition of IMMH-010 hydrolysis in HLM, selective CES1 inhibitor. Type of test: in vitro ADME. Also noted: tissue BD Gentest; host or cells: pooled mixed-gender human liver microsomes. The following applies: 100 μM inhibitor, IMMH-010 10 µM, HLM 0.2 mg/mL, 15 min, vs no inhibitor group. The protocol:
(§1) Selective chemical inhibitors and recombinant human enzymes were used to investigate the esterase responsible for IMMH-010 metabolism in HLM. The selective CES1 and CES2 inhibitors were digitonin (100 μM) and telmisartan (50 μM), respectively. IMMH-010 (10 µM) was incubated with HLM (0.2 mg/mL) at 37 °C for 0 and 15 min in the presence of chemical inhibitors. Control samples were incubated without inhibitors.

A further test deals with T2, CES2 (Homo sapiens, UniProt O00748).
T2 sequence (O00748 27-559): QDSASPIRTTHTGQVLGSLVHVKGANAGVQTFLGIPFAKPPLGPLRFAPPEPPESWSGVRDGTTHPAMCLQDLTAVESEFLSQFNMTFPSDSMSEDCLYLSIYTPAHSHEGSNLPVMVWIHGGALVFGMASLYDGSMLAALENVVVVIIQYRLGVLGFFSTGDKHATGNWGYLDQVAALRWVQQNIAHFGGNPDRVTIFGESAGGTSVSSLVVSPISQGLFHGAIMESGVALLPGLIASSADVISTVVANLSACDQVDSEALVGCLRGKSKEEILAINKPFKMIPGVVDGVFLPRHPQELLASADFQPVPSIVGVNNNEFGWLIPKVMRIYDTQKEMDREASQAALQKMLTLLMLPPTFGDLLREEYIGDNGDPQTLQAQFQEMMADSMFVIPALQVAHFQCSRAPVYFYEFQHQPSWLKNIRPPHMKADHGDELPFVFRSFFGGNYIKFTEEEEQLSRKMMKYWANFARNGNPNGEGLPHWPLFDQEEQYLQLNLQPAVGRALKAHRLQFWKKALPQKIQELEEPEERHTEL
In words: Chemical inhibition of IMMH-010 hydrolysis in HLM, selective CES2 inhibitor. The conditions noted are these: 50 μM inhibitor, IMMH-010 10 µM, HLM 0.2 mg/mL, 15 min. Also noted: tissue BD Gentest; host or cells: pooled mixed-gender human liver microsomes. Type of test: in vitro ADME. How it is done: as §1

Consider `C[C@@H]1CC[C@@]2(OC1)O[C@H]1[C@@H](O)[C@H]3[C@@H]4CC[C@H]5C[C@@H](O[C@@H]6O[C@H](CO)[C@H](O[C@@H]7O[C@H](CO)[C@@H](O)[C@H](O[C@@H]8OC[C@@H](O)[C@H](O)[C@H]8O)[C@H]7O[C@@H]7O[C@H](CO)[C@H](O)[C@H](O[C@@H]8O[C@H](CO)[C@@H](O)[C@H](O)[C@H]8O)[C@H]7O)[C@H](O)[C@H]6O)[C@H](O)C[C@]5(C)[C@H]4CC[C@]3(C)[C@H]1[C@@H]2C` [digitonin], for which the “inhibition of the formation of YPD-29B” value against CES1 came out at 35.8%.

Consider `CCCc1nc2c(C)cc(-c3nc4ccccc4n3C)cc2n1Cc1ccc(-c2ccccc2C(=O)O)cc1` [telmisartan], for which, at CES2, the “inhibition of the formation of YPD-29B” value is listed as “did not inhibit; also recorded: no inhibition”.
